Tests used:
MCF-7 cells [1] = assay: MTT cytotoxicity assay, MCF-7 cells; assay type: cell-based; settings: Homo sapiens, triplicate; for inhibition at 100 µM: MCF7, 100 µM, 72 h; for IC50: MCF7, 72 h culture, 1-100 µM
A549 cells [2] = assay: MTT cytotoxicity assay, A549 cells; assay type: cell-based, human; settings: triplicate; for reduction of A549 cell viability: 100 µM, 72 h; for IC50: Homo sapiens, A549, 72 h culture, 1-100 µM
[3] = target: T1, recombinant human EGFR (amino acids 695 to C-terminus) (Homo sapiens, UniProt P00533); assay: EGFR Kinase Enzyme System / ADP-Glo kinase assay; assay type: biochemical
T1 construct: recombinant human EGFR (amino acids 695 to C-terminus); purchased Promega Corporation V3831
T1 sequence (P00533 695-1210 limits assumed): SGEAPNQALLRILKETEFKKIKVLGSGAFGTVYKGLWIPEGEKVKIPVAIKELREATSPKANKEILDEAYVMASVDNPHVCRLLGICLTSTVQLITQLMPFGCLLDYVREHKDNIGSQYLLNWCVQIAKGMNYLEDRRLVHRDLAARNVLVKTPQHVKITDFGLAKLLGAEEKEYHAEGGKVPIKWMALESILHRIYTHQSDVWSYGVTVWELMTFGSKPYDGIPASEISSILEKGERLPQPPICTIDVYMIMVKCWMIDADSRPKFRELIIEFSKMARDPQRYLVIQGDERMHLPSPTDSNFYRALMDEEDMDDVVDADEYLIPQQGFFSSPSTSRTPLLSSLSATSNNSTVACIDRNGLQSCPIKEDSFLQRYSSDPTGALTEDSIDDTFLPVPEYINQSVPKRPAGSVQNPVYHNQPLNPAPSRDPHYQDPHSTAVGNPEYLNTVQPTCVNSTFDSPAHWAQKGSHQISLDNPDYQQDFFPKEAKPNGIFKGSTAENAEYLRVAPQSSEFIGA
Description: Overexpression or mutation of the EGFR gene markedly enhances cell growth and proliferation, particularly in NSCLC [41] and breast cancer, making EGFR a well-established and effective therapeutic target for these diseases. Due to their potent activity against NSCLC and breast cancer, B-1 and B-2 were further examined for their potential to inhibit EGFR.
The kinase profiling assay (EGFR Kinase Enzyme System, V3831) was conducted according to the manufacturer’s protocol (Promega Corporation, Madison, WI, USA), with minor modifications. In brief, 95 μL of 2.5× kinase buffer and 15 μL of 100 μM ATP solution were used to prepare dilutions of recombinant human EGFR (amino acids 695 to C-terminus) and its substrate (4:1 Glu:Tyr mixture). Reactions were set up in a 384-well plate, each containing 2 μL of kinase working stock, 2 μL of ATP/substrate working stock, and 1 μL of test compound solution or 5% DMSO as a control. After a 2 h incubation at r.t., kinase activity was measured using the ADP-Glo Kinase Assay (Promega), following the manufacturer’s instructions. Specifically, 5 μL of ADP-Glo Reagent was added to each well and incubated for 40 min, followed by 10 μL of Kinase Detection Reagent and a further 30 min incubation at r.t. Luminescence was recorded using the Infinite M1000 microplate reader (Tecan, Grödig, Austria) with an integration time of 0.5 to 1 s to assess the compounds’ kinase inhibitory effects in a dose-dependent manner.

PBMCs = assay: MTT cytotoxicity assay, PBMCs (healthy); assay type: cell-based; settings: PBMC
Description: (§1) A549 and MCF-7 human cancer cell lines were cultured in Dulbecco’s Modified Eagle’s Medium (DMEM) (Wako Pure Chemical Industries, Osaka, Japan) supplemented with 10% fetal bovine serum (FBS) (Equitech-Bio, Kerrville, TX, USA). Jurkat cells, derived from human leukemia, were maintained in RPMI 1640 medium (Wako Pure Chemical Industries) with 10% FBS. PBMCs (Precision Bioservices, Frederick, MD, USA) were cultured in RPMI 1640 medium supplemented with 10% human AB serum (HS) (Gemini, Woodland, CA, USA). All media were supplemented with 89 μg/mL of streptomycin (Meiji Seika Pharma, Tokyo, Japan). Cells were incubated at 37 °C in a humidified atmosphere containing 95% air and 5% CO2. Cancer cells and PBMCs were seeded into 24-well and 96-well microtiter tissue culture plates (Iwaki, Asahi Glass Co., Chiba, Japan) at densities of 4 × 10^4 cells/mL and 5 × 10^5 cells/mL, respectively, and incubated for 72 h prior to drug treatment. The optimal seeding density for cytotoxicity assays was determined through preliminary testing. […] The cellular reduction MTT (Dojindo Molecular Technologies, Kumamoto, Japan) was assessed following established protocols from the literature, with slight modifications.

Jurkat cells = assay: MTT cytotoxicity assay, Jurkat cells; assay type: cell-based, human; settings: for IC50: Homo sapiens, Jurkat, MTT; for SI (Selectivity Index): IC50 for PBMC/IC50 for Jurkat cell line
Description: as §1, with “Jurkat cells, derived from human leukemia, were maintained in RPMI 1640 medium (Wako Pure Chemical Industries) with 10% FBS. PBMCs (Precision Bioservices, Frederick, MD, USA) were cultured in RPMI 1640 medium supplemented with 10% human AB serum (HS) (Gemini, Woodland, CA, USA).” left out, “Cells were incubated at 37 °C in a humidified atmosphere containing 95% air and 5% CO2.” left out

MCF-7 cells [4] = assay: Annexin V/ethidium homodimer-III apoptosis staining, MCF-7 cells; assay type: cell-based, human; settings: IC50 concentration, 24 h, compared to control
Description: (§2) In this method, green staining indicates apoptotic cells, red indicates necrotic cells, and yellow represents cells in the late stages of apoptosis. This staining was analyzed using a fluorescence microscope. […] Furthermore, the apoptotic effect of B-2 on MCF-7 cells was assessed, showing that 4.3% of the cells underwent apoptosis after treatment, a result that was statistically significant (Figure 5b).
(§3) A549 and MCF-7 cells were treated with B-1 and B-2 at its IC50 concentration for 24 h. Following treatment, the cells were detached using 0.05% trypsin, washed twice with 1× binding buffer, and incubated in the dark at r.t. for 20 min with a staining solution containing 50 μL of 1× binding buffer, 4 μL of FITC-Annexin V solution, 4 μL of ethidium homodimer III solution, and 4 μL of Hoechst 33342 solution. After staining, the cells were washed again with 1× binding buffer, fixed in 2% paraformaldehyde, rinsed with PBS, and analyzed using the Biorevo Fluorescence BZ-9000 all-in-one fluorescence microscope (Keyence, Osaka, Japan).

A549 cells [5] = assay: Annexin V/ethidium homodimer-III apoptosis staining, A549 cells; assay type: cell-based, human; settings: IC50 concentration, 24 h, compared to control
Description: as §2, §3

Structure (SMILES) | inhibition at 100 µM (MCF-7 cells [1]) [%] | IC50 (MCF-7 cells [1]) [µM] | reduction of A549 cell viability (A549 cells [2]) [%] | IC50 (A549 cells [2]) [µM] | EGFR inhibition ([3]; 1 μM) | EGFR inhibition ([3]; 10 μM) | IC50 (PBMCs) [µM] | IC50 (Jurkat cells) [µM] | SI (Selectivity Index) (Jurkat cells) | apoptosis in MCF-7 cells (MCF-7 cells [4]) [%] | apoptosis in A549 cells (A549 cells [5]) [%] | inhibition at 1 µM ([3]; 1 μM) [%] | inhibition at 10 µM ([3]; 10 μM) [%]
Cc1ccc(C(=O)/C=C/c2cnc(-c3ccc(Cl)cc3)nc2)cc1 [Compound B-1, (E)-3-(2-(4-Chlorophenyl)pyrimidin-5-yl)-1-(4-methylphenyl)-2-propen-1-one] | 73 | 6.1 ± 1.26 | 38 | > 100 | no inhibitory effect | no inhibitory effect | 121 ± 14.8 | 2.12 ± 0.48 | 57.08 | 11.6 |  |  | 
COc1ccc(C(=O)/C=C/c2cnc(-c3ccc(Cl)cc3)nc2)cc1 [Compound B-2, (E)-3-(2-(4-Chlorophenyl)pyrimidin-5-yl)-1-(4-methoxyphenyl)-2-propen-1-one] | 52 | 8.91 ± 1.38 | 73 | 2.14 ± 0.83 |  |  | 68.7 ± 9.82 | 2.96 ± 0.44 | 23.20 | 4.3 | 16.8 | 26 | 66
